Test in all cases: Conditioned place preference (CPP) assay
The target in experiment [1] is Histone deacetylase 1 (Homo sapiens, UniProt Q13547).
Experiment [2] concerns the target Histone deacetylase 3 (Homo sapiens, UniProt O15379).
Experiment [3] addresses Histone deacetylase 2 (Homo sapiens, UniProt Q92769).

Sequence of Histone deacetylase 1 (Q13547 whole entry): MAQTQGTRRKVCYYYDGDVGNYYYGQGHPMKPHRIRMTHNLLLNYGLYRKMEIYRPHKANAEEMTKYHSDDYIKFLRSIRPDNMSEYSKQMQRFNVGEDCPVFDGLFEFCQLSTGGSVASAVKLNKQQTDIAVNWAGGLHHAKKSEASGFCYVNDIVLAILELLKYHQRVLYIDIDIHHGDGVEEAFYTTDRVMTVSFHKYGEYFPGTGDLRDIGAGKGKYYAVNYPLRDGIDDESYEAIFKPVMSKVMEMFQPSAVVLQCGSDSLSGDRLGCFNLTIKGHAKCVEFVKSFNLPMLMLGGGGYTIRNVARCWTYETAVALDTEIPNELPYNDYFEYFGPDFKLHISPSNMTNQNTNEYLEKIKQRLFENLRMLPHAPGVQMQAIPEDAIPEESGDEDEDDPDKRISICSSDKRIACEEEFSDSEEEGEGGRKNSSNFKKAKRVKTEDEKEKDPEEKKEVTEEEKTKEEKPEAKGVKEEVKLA
Sequence of Histone deacetylase 3 (O15379 whole entry): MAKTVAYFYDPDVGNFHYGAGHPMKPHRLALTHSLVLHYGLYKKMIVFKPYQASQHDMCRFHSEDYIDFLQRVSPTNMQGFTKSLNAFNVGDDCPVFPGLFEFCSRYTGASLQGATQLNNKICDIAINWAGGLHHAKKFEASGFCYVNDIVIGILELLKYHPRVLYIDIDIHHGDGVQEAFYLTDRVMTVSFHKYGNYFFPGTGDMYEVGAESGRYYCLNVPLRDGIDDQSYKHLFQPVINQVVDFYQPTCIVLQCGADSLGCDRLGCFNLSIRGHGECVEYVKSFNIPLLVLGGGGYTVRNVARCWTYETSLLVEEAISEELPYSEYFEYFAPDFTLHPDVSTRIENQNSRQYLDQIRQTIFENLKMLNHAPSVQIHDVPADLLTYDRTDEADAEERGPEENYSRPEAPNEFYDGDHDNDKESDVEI
Sequence of Histone deacetylase 2 (Q92769 whole entry): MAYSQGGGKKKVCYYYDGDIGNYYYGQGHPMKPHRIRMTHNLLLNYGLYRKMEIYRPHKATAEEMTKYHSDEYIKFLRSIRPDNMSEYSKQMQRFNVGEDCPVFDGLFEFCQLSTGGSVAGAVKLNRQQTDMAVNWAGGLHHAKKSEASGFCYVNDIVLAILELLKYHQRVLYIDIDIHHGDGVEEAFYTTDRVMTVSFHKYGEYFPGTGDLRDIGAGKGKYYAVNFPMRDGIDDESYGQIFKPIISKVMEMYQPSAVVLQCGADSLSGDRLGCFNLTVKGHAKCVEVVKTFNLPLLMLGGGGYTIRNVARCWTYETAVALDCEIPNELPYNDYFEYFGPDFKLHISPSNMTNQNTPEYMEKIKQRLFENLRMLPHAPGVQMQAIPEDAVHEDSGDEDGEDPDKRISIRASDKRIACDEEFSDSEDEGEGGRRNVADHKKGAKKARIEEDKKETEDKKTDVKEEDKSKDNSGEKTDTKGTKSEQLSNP

One may read the IC50 as the midpoint of a concentration-inhibition curve. As for `COC(c1ccc(F)cc1)(c1ccc(F)cc1)c1ccc(C(=O)NCCCCCCC(=O)NO)cc1` [US20240252496, Example ACY-257], the results for the IC50 in experiment [1], in experiment [2] and in experiment [3] were 268 nM, 850 nM and 530 nM, respectively.

Values taken from BindingDB's records for patent US20240252496 (The Children’s Medical Center, 2024).
